For assay [1], the system named is thrombus in FeCl3-injured mesenteric arteries. Briefly: Mouse ferric chloride arterial injury (thrombosis) model. Particulars: bolus, same tPA dose (50 ng). The class given is in vivo. As to the method:
A previously described model was used with minor modifications (16). In brief, male C57BL/6 mice (3-4 weeks old) were anesthetized with 2.5% tribromoethanol (0.15 ml/10 g) and injected with fluorescently labeled platelets (calceinRed/Orange, ˜1×10^9 platelets/kg). An incision was made through the abdominal wall to expose the mesentery and arterioles (˜100 μm in diameter) were visualized using a Zeiss Axiovert 135-inverted microscope (objectives: 10× and 32×, Carl Zeiss Microlmaging, Inc.) and recorded on videotape. Whatman filter paper saturated with FeCl3 (10%) solution was applied topically for 5 min, which caused denudation of the endothelium. […] Following this bolus injection, the vessels were monitored until full occlusion occurred (blood flow stopped) and lasted for more than 10 seconds. The shear rate was calculated using an optical Doppler velocity meter (Microcirculation Research Institute, Texas A&M College of Medicine, College Station, Tex.) (17). […]

Assay [2] concerns fibrin clots in pulmonary arteries. Briefly: Ex vivo mouse pulmonary embolism model (lung ventilation-perfusion). As to the method:
(§1) Fibrin clots were formed by adding CaCl2 (20 mM) and human α-thrombin (1 units/ml final concentrations, Enzyme Research Laboratories, IN) to human fibrinogen (5 mg/ml, Enzyme Research Laboratories, IN), as previously described (23, 31). This solution was immediately added drop-wise to a solution of canola oil with Span-80 (0.05%). The emulsion was mixed at 350 rpm for 4 hr and centrifuged (500 g, 5 min), followed by repeated washing in ethanol and water. The diameter of the resulting fibrin beads was determined by optical microscopy to be ˜250 μm. By adjusting the mixing speed in the described protocol, fibrin beads of smaller defined sizes were produced.
6-8 week-old C57BL/6 male mice (Jackson Laboratory, Bar Harbor, Me.) were weighed and anesthetized with Avertin (200 mg/kg IP). The trachea was incised via surgical tracheotomy, and cannulated with a blunted 22G stainless steel needle tip. The lungs were subsequently ventilated at a rate of 60 breaths/min, with a Peak Inspiratory Pressure (Pip) of 10 cm H2O and a Positive End Expiratory Pressure (Peep) of 3 cmH2O with compressed air using a mouse ventilator (VCM-R, Hugo Sachs Elektroniks, Germany). Ex vivo ventilation and perfusion of the mouse lung was performed using an IL1 ex vivo mouse lung ventilation-perfusion system (Harvard Apparatus, Natick, Mass.), (32). Following initiation of mechanical ventilation, the chest was opened via thoracotomy, and heparin (100 IU) was injected into the right ventricle. […] A suture was placed around the pulmonary artery and aorta. Cannulae made from polyethylene tubing (PE90 (0.86 mm ID, 1.7 mm OD)) were placed in the pulmonary artery (PA) and left atrium (LA), and lungs were perfused with RPMI-1640 with 4% Bovine Albumin (PROBUMIN™ Reagent Grade, Billerica, Mass.) and 0.7 g NaCl/500 ml via a roller pump (ISM 834C, Ismatec SA, Switzerland) set at a constant flow rate of 0.5 ml/min in a recirculating system with a system volume of 6 ml. Perfusate and lung temperatures were maintained at 37° C. by housing the entire ex-vivo ventilation perfusion system inside a standard cell incubator without CO2 (Forma Scientific, Ohio). Humidity was maintained in the range […]. Pulmonary arterial and left atrial pressures and airway flow and pressures were recorded with dedicated Type 379 vascular pressure and DLP2.5 flow and MPX Type 399/2airway pressure transducers and TAM-A amplifiers (Hugo Sachs Elektroniks, Germany). Vascular pressures were zeroed at the mid lung level prior to each experiment and recorded using Polyview16© software (Grass Technologies, West Warwick, R.I.). Prior to injection of experimental fibrin clots (prepared as above), the measured pressures were allowed to stabilize and remain stable for a period of more than 10 minutes. A solution of fibrin clots suspended in perfusion medium was infused at a flow rate of 0.1 ml/min and mixed with the regular perfusion line entering the pulmonary artery. The fibrin clot suspension was infused until the pulmonary artery pressure increased to ˜three-fold higher than the baseline. The system was then allowed to equilibrate and remain stable for at least 10 minutes. Next, tPA-coated SA-NTs or free soluble tPA was added to the main perfusion line and circulated through the perfusion system. As in the microfluidic device experiments, when tPA was perfused, plasminogen was added to obtain a final concentration of 2.2 μM. Pulmonary artery and vein pressures were acquired continuously during the perfusion period. […]

The target in another assay is T1, fibrin clots (Homo sapiens, UniProt P02671+P02675+P02679).
T1 construct: purchased Enzyme Research Laboratories, IN (fibrinogen, α-thrombin); Cell Sciences, MA (plasminogen)
T1 sequence (P02671 36-629 limits assumed): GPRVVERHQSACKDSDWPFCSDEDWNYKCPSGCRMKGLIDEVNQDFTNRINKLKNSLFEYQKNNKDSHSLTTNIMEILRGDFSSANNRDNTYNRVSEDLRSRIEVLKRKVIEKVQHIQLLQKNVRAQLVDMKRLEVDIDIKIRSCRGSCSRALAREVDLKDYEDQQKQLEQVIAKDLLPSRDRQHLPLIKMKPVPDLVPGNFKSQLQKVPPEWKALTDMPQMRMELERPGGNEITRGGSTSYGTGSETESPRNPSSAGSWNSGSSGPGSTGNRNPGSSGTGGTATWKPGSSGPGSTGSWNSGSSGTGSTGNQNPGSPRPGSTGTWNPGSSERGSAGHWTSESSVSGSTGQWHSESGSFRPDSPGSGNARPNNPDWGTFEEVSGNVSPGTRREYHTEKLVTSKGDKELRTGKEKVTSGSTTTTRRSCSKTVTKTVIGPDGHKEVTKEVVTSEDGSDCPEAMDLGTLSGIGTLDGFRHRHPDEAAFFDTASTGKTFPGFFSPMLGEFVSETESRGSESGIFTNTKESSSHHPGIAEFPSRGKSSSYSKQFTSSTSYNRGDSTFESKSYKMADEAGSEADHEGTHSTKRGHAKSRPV
T1 sequence (P02675 45-491 limits assumed): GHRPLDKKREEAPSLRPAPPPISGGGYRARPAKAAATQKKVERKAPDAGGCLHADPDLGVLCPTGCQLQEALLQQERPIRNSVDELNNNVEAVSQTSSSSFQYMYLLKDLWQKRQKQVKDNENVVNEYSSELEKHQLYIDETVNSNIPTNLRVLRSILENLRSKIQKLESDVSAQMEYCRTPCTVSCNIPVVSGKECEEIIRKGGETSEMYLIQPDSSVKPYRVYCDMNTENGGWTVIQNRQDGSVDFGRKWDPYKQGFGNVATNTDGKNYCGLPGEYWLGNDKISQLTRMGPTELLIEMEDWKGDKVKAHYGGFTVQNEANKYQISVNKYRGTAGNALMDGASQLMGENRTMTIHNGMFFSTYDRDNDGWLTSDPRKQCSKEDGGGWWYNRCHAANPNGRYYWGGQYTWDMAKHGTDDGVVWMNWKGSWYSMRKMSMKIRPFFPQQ
T1 sequence (P02679 27-437 isoform P02679-2 limits assumed): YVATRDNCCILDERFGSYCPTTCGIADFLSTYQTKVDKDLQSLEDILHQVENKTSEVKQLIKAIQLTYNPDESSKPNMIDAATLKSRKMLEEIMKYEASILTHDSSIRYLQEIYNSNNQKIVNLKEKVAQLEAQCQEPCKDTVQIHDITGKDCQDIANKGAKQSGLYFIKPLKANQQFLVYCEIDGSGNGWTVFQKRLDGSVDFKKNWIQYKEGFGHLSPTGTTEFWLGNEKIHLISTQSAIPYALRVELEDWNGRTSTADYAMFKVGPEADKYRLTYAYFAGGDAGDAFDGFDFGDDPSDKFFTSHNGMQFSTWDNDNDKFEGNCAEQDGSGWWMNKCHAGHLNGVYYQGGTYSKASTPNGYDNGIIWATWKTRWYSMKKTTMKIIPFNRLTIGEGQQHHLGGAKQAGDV
As to the kind of experiment: Microfluidic model of vascular embolism (fibrin clot lysis). Particulars: 50 ng/ml tPA, same flow conditions. The class given is biochemical.
Source text: Microfluidic devices with a narrowed cross-sectional area (80 μm high×0.5 mm wide×200 mm long) were fabricated using soft lithography as described above. Fibrin clots formed as described below that were infused into the main channel lodged and obstructed the flow in these smaller channels. A solution of tPA or tPA coated SA-NTs was infused at a flow rate corresponding to a shear stress of 10 dyne/cm2 in an unobstructed channel. Prior to infusion of the tPA solutions, bovine plasminogen (Cell Sciences, MA) was added to a final concentration of 2.2 μM (30). During the fibrinolysis process, the fibrin clot sizes were monitored in real-time (images acquired every 30 sec) on an inverted Zeiss microscope.
as §1

Entries after “also recorded” stand apart in the source; their conditions may differ. A value given as a limit tells only on which side of the number the result lay.

For tissue plasminogen activator [free tPA], in assay [1], the “delay of time to full vascular occlusion” value was “did not produce any significant delay; also recorded: neither addition of free tPA, pre-dissociated tPA-NPs, nor heat-fused tPA-NP microaggregates (that do not dissociate in high shear) produced any detectable effects”. The “effect on pulmonary artery pressure” value in assay [2] (50 ng/ml) was “did not reduce pulmonary artery pressure”; in assay [2] (50 ng/ml, listed as soluble tPA), “failed to produce any significant response”; in assay [2] (500 ng/ml (ten times higher dose)), “did not reduce pulmonary artery pressure”; in assay [2] (500 ng/ml (ten times higher dose), listed as soluble tPA), “failed to produce any significant response”; in assay [2] (5,000 ng/ml (100-fold higher dose)), “produced similar effects”. Also, the “reduction in clot size” value in the assay with fibrin clots was less than 5%.
